Test results from patent US8790708B2, “Coated tablet formulations and uses thereof” (Wyeth LLC, priority 2009, dated 2014).
Counter-ions that a name gives are not always drawn.

Test: Surface free energy (work of cohesion) of particles
Type: physicochemical
Description: This property renders the primary particles very cohesive and prone to aggregation as described by B. Janczuk and T. Bialopiotrowicz, “Surface Free-Energy Components of Liquids and Low Energy Solids and Contact Angles,” in J. Colloid Interf. Sci. 127 (1989), p. 189-204; W. R. Good, “A Comparison of Contact Angle Interpretations,” in J. Colloid Interf. Sci. 44 (1973), p. 63; M. D. Lechner (Ed.), Landolt Börnstein, New Series, Vol. IV/16, “Surface Tension of Pure Liquids and Binary Liquid Mixture,” Springer Verlag, 1998; and J. J. Jasper, “The Surface Tension of Pure Liquid Compounds,” in J. Phys. Chem. Ref. Data, Vol. 1, No. 4, 1972, p. 859. […] Due to these limitations, it was not possible to develop a neratinib maleate formulation comprising a capsule or tablet of higher strength employing a direct compression or roller compaction processes successfully. A formulation using a conventional wet granulation method led to chemical degradation and stability issues.

CCOc1cc2ncc(C#N)c(Nc3ccc(OCc4ccccn4)c(Cl)c3)c2cc1NC(=O)/C=C/CN(C)C [Neratinib maleate, (E)-N-(4-(3-chloro-4-(pyridin-2-ylmethoxy)phenylamino)-3-cyano-7-ethoxyquinolin-6-yl)-4-(dimethylamino)but-2-enamide]
work of cohesion (surface free energy): 45.62 mN/m
